Measured values published in PubChem BioAssay AID248 (DTP/NCI, 2004).
Several values for one entry are separate records, joined by “and”; a condition that tells them apart may be missing. Identical values can stand only once. Inconclusive results and toxic doses are left out. Cut-off read from the data, not from the text of the source: active = T/C of 150% or more; inactive = T/C below 125%. Numbered stars: 1 amine (or outer) side, 2 acyl side, 3 side chain; on linkers, the order of the positions; unused ones are H or OH. Square brackets hold non-standard residues; d marks the D form. Peptide text beside a SMILES is read from it. γGlu = O=C(O)[CH](CCC(=O)[*:2])N[*:1]; Hpg = N[CH](C(=O)O)c1ccc(O)cc1

Test system: L1210 leukemia ip in BDF1 mice, survival T/C
Experiment: NCI In Vivo Anticancer Drug Screen. Data for tumor model L1210 Leukemia (intraperitoneal) in B6D2F1 (BDF1) mice
Conditions: endpoint: mean survival time, higher = longer survival
Procedure, shortened: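 Value reflects the ratio of survival in compound-treated mice to survival in vehicle-treated controls, with both groups carrying the same transplanted tumor.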

[1] = dose: 100.0 mg/kg/injection, schedule: Q04DX003 (ip), vehicle: saline with Tween-80
[2] = dose: 200.0 mg/kg/injection, schedule: Q04DX003 (ip), vehicle: saline with Tween-80
[3] = dose: 50.0 mg/kg/injection, schedule: Q01DX001 (ip), vehicle: carboxymethylcellulose (CMC)
[4] = dose: 100.0 mg/kg/injection, schedule: Q01DX001 (ip), vehicle: carboxymethylcellulose (CMC)
[5] = dose: 200.0 mg/kg/injection, schedule: Q01DX001 (ip), vehicle: carboxymethylcellulose (CMC)
[6] = dose: 400.0 mg/kg/injection, schedule: Q01DX001 (ip), vehicle: carboxymethylcellulose (CMC)
[7] = dose: 400.0 mg/kg/injection, schedule: Q04DX003 (ip), vehicle: saline with Tween-80
[8] = dose: 100.0 mg/kg/injection, schedule: Q01DX001 (ip), vehicle: saline
[9] = dose: 100.0 mg/kg/injection, schedule: Q04DX003 (ip), vehicle: Klucel (hydroxypropylcellulose) (HPC)
[10] = dose: 100.0 mg/kg/injection, schedule: Q01DX009 (ip), vehicle: Klucel (hydroxypropylcellulose) (HPC)
[11] = dose: 200.0 mg/kg/injection, schedule: Q01DX009 (ip), vehicle: Klucel (hydroxypropylcellulose) (HPC)
[12] = dose: 400.0 mg/kg/injection, schedule: Q01DX009 (ip), vehicle: Klucel (hydroxypropylcellulose) (HPC)

Measured: T/C

Clc1nnc(Cl)c(Cl)c1Cl
inactive: dose: 0.31 mg/kg/injection, schedule: Q01DX009 (ip), vehicle: saline 101 % of control | dose: 0.5 mg/kg/injection, schedule: Q01DX Z (ip), vehicle: carboxymethylcellulose (CMC) 98 % of control | dose: 0.62 mg/kg/injection, schedule: Q01DX009 (ip), vehicle: saline 98 % of control | dose: 0.62 mg/kg/injection, schedule: Q04DX003 (ip), vehicle: acetone 96 % of control | dose: 0.75 mg/kg/injection, schedule: Q01DX009 (ip), vehicle: saline 104 % of control | dose: 1.0 mg/kg/injection, schedule: Q01DX Z (ip), vehicle: carboxymethylcellulose (CMC) 96 % of control | dose: 1.25 mg/kg/injection, schedule: Q01DX009 (ip), vehicle: saline 96 % of control | dose: 1.25 mg/kg/injection, schedule: Q04DX003 (ip), vehicle: acetone 89 % of control | dose: 1.5 mg/kg/injection, schedule: Q01DX009 (ip), vehicle: saline 97 % of control | dose: 1.8 mg/kg/injection, schedule: Q01DX009 (ip), vehicle: saline with Tween-80 102 % of control | dose: 2.0 mg/kg/injection, schedule: Q01DX Z (ip), vehicle: carboxymethylcellulose (CMC) 93 % of control | dose: 2.5 mg/kg/injection, schedule: Q01DX001 (ip), vehicle: saline 97 % of control | dose: 2.8 mg/kg/injection, schedule: Q01DX009 (ip), vehicle: saline with Tween-80 108 % of control | dose: 3.0 mg/kg/injection, schedule: Q01DX009 (ip), vehicle: saline 97 % of control | dose: 4.0 mg/kg/injection, schedule: Q01DX015 (ip), vehicle: carboxymethylcellulose (CMC) 96 % of control | dose: 4.0 mg/kg/injection, schedule: Q01DX Z (ip), vehicle: carboxymethylcellulose (CMC) 93 % of control | dose: 4.2 mg/kg/injection, schedule: Q01DX009 (ip), vehicle: saline with Tween-80 94 % of control | dose: 8.0 mg/kg/injection, schedule: Q01DX015 (ip), vehicle: carboxymethylcellulose (CMC) 93 % of control

S=c1cc(S)c(=S)[nH][nH]1
inactive: dose: 5.0 mg/kg/injection, schedule: Q01DX001 (ip), vehicle: other 98 % of control | dose: 10.0 mg/kg/injection, schedule: Q01DX001 (ip), vehicle: other 96 % of control | dose: 20.0 mg/kg/injection, schedule: Q01DX001 (ip), vehicle: other 96 % of control

CCCCCCCCCCOP1(=O)C=C(C)CC1 (stereo not given)
inactive: [1] 93 % of control | [2] 93 % of control

CN(C)C(=O)N1CCCCC1
inactive: dose: 100.0 mg/kg/injection, schedule: Q04DX002 (ip), vehicle: saline with Tween-80 101 % of control | dose: 200.0 mg/kg/injection, schedule: Q04DX002 (ip), vehicle: saline with Tween-80 93 % of control | dose: 400.0 mg/kg/injection, schedule: Q04DX002 (ip), vehicle: saline with Tween-80 111 % of control

CCOP(=O)(Nc1cccc(Cl)c1)OCC
inactive: [3] 94 % of control | [4] 94 % of control | [5] 105 % of control | [6] 103 % of control

NC1C2CC3CC(C2)CC1C3 (stereo not given)
inactive: dose: 5.0 mg/kg/injection, schedule: Q01DX001 (ip), vehicle: saline 102 % of control | dose: 10.0 mg/kg/injection, schedule: Q01DX001 (ip), vehicle: saline 98 % of control | dose: 20.0 mg/kg/injection, schedule: Q01DX001 (ip), vehicle: saline 107 % of control | dose: 40.0 mg/kg/injection, schedule: Q01DX001 (ip), vehicle: saline 96 % of control | dose: 75.0 mg/kg/injection, schedule: Q01DX001 (ip), vehicle: other 93 % of control | dose: 80.0 mg/kg/injection, schedule: Q01DX001 (ip), vehicle: saline 96 % of control

Nc1nc(N)nc(NC(=O)CNCc2ccccc2)n1
inactive: [1] 101 % of control and 105 % of control | [2] 97 % of control and 107 % of control | [7] 97 % of control and 102 % of control

NNC(=O)c1c(C(N)=O)n[nH]c1C1OC(COCc2ccccc2)C(OCc2ccccc2)C1OCc1ccccc1 (stereo not given)
inactive: dose: 100.0 mg/kg/injection, schedule: Q01DX005 (ip), vehicle: saline 97 % of control and 93 % of control | dose: 200.0 mg/kg/injection, schedule: Q01DX005 (ip), vehicle: saline 100 % of control and 101 % of control

C#CC(C)OCC(C)OC (stereo not given)
inactive: dose: 25.0 mg/kg/injection, schedule: Q01DX009 (ip), vehicle: acetone 97 % of control | dose: 50.0 mg/kg/injection, schedule: Q01DX009 (ip), vehicle: acetone 103 % of control | dose: 100.0 mg/kg/injection, schedule: Q04DX003 (ip), vehicle: acetone 102 % of control

CC(=O)OC1c2ccccc2-c2ccc([N+](=O)[O-])cc21 (stereo not given)
inactive: [1] 93 % of control and 100 % of control | [2] 100 % of control and 102 % of control | [7] 96 % of control and 98 % of control

CCCCCCN(CCCCCC)P(=O)(N1CC1C)N1CC1C (stereo not given)
inactive: dose: 50.0 mg/kg/injection, schedule: Q01DX001 (ip), vehicle: saline 104 % of control | [8] 101 % of control

C#CC(C)N1CCC2(CC1)C(=O)NCN2c1ccccc1 (stereo not given)
inactive: dose: 100.0 mg/kg/injection, schedule: Q01DX001 (ip), vehicle: Klucel (hydroxypropylcellulose) (HPC) 98 % of control | dose: 200.0 mg/kg/injection, schedule: Q01DX001 (ip), vehicle: Klucel (hydroxypropylcellulose) (HPC) 97 % of control | dose: 400.0 mg/kg/injection, schedule: Q01DX001 (ip), vehicle: Klucel (hydroxypropylcellulose) (HPC) 95 % of control

C=CCOC1C=CC=CC=C1
inactive: dose: 25.0 mg/kg/injection, schedule: Q01DX009 (ip), vehicle: Klucel (hydroxypropylcellulose) (HPC) 100 % of control | dose: 50.0 mg/kg/injection, schedule: Q01DX009 (ip), vehicle: Klucel (hydroxypropylcellulose) (HPC) 100 % of control | [9] 94 % of control

NC(=O)c1ccccc1NC(=O)Nc1c(Cl)cccc1Cl
inactive: [10] 94 % of control | [11] 106 % of control | [12] 120 % of control

Cc1ccc(S(=O)(=O)N(C)c2ccc(C#N)c3ccccc23)cc1
inactive: [1] 97 % of control | [2] 89 % of control | [7] 90 % of control

NC(=O)NC(=O)CCl
inactive: dose: 50.0 mg/kg/injection, schedule: Q04DX002 (ip), vehicle: Klucel (hydroxypropylcellulose) (HPC) 103 % of control | dose: 100.0 mg/kg/injection, schedule: Q04DX002 (ip), vehicle: Klucel (hydroxypropylcellulose) (HPC) 109 % of control | dose: 200.0 mg/kg/injection, schedule: Q04DX002 (ip), vehicle: Klucel (hydroxypropylcellulose) (HPC) 95 % of control

CC(=O)OCCC#N
inactive: [3] 95 % of control | [4] 95 % of control | [5] 106 % of control | [6] 95 % of control

CC(NC(=O)CCC(NC(=O)C(Cc1ccc(O)cc1)NC(=O)CNC(=O)C(C)NC(=O)CCC(NC(=O)C(N)c1ccc(O)cc1)C(=O)O)C(=O)O)C(=O)NCC(=O)NCC(=O)O (stereo not given) (H-[Hpg][γGlu]AGY[γGlu]AGG-OH; configuration not given here)
inactive: [8] 97 % of control | dose: 200.0 mg/kg/injection, schedule: Q01DX001 (ip), vehicle: saline 98 % of control | dose: 400.0 mg/kg/injection, schedule: Q01DX001 (ip), vehicle: saline 97 % of control

CC(=O)Nc1nc(-c2ccc([N+](=O)[O-])cc2)c(CCC=O)c(=O)[nH]1
inactive: [10] 88 % of control | [9] 90 % of control | [11] 94 % of control | dose: 200.0 mg/kg/injection, schedule: Q04DX003 (ip), vehicle: Klucel (hydroxypropylcellulose) (HPC) 98 % of control | [12] 102 % of control | dose: 400.0 mg/kg/injection, schedule: Q04DX003 (ip), vehicle: Klucel (hydroxypropylcellulose) (HPC) 98 % of control

COc1ccc(OC)c(/C=C/c2ccc(NC(=O)C(Cl)(Cl)Cl)cc2)c1
inactive: [10] 98 % of control | [11] 93 % of control | [12] 102 % of control
